The subject of the experiment is Rattus norvegicus. Nature of the experiment: Antihyperglycemic activity against streptozotocin-induced diabetic rat assessed as change in plasma glucose at 1 mM/kg, iv. Format: functional.

`O=C(O)[C@H]1O[C@@H](Oc2cc(O)c3c(=O)cc(-c4ccc(O)c(O)c4)oc3c2)[C@H](O)[C@@H](O)[C@@H]1O`: the Activity is on record as -25.54%.

The values above are taken from ChEMBL document CHEMBL1150149, “Bacopaside III, bacopasaponin G, and bacopasides A, B, and C from Bacopa monniera” (2002).
